Source: patent US9174974B2, “Macrocyclic factor VIIa inhibitors” (BRISTOL-MYERS SQUIBB COMPANY, priority 2012, dated 2015)
Where two headings read alike, the source gives them in different places.

Assays:
tissue kallikrein (HK1) = tissue kallikrein (HK1) (Homo sapiens (Human), UniProt P06870); experiment: Tissue kallikrein-1 (HK1) Ki, fluorogenic substrate assay; format: biochemical; details: 37° C.
human FVIIa = human FVIIa (Homo sapiens (Human), UniProt P08709); experiment: FVIIa Ki (37° C.), FVIIa-Xase assay; format: biochemical; details: for Ki(HK1)/Ki(FVIIa): selectivity ratio, tissue kallikrein (HK1) vs FVIIa
Sequence of human FVIIa (P08709 61-212): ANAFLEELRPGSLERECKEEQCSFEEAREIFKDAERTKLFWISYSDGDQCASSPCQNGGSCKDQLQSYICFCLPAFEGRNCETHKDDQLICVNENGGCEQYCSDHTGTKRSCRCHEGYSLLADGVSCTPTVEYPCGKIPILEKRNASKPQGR
Sequence of human FVIIa (P08709 213-466): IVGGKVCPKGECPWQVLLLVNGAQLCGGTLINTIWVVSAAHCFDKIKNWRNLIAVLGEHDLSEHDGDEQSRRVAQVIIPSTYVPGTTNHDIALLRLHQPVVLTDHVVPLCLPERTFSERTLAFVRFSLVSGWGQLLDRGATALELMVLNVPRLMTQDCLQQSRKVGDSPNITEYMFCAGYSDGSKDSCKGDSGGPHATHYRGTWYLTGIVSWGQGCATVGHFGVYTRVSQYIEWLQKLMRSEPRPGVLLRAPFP
Sequence of human FVIIa (P13726 33-295 partner): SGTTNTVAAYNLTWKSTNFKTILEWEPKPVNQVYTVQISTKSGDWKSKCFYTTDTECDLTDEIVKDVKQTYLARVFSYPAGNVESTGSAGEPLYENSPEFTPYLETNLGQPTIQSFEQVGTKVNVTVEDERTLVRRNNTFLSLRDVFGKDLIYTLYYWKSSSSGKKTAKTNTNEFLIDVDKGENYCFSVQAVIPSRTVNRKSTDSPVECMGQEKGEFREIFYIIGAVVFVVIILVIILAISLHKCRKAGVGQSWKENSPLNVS

Sequence of tissue kallikrein (HK1) (P06870 25-262): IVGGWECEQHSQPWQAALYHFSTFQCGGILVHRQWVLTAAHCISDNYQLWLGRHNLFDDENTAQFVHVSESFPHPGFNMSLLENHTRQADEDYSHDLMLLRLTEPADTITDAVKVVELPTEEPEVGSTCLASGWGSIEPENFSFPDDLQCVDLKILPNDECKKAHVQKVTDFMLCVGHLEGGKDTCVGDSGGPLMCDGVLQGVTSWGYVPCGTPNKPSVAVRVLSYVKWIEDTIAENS

Structure (SMILES) | Ki (tissue kallikrein (HK1)) [nM] | Ki (human FVIIa; read-out: FVIIa Ki, nM 37° C.) [nM] | Ki(HK1)/Ki(FVIIa) (human FVIIa) | Ki (human FVIIa) [nM]
CCN(Cc1nccs1)C(=O)c1ccc2cc1CN(C)C(=O)[C@H](Nc1ccc3c(N)nccc3c1)c1cc(C)c(c(C)c1)C(F)(F)COC(=O)N2.O=C(O)C(F)(F)F [Example 4, (2R)-2-[(1-Aminoisoquinolin-6-yl)amino]-N-ethyl-15,15-difluoro-4,17,20-trimethyl-3,12-dioxo-N-(1,3-thiazol-2-ylmethyl)-13-oxa-4,11-diazatricyclo[14.2.2.1^6,10]henicosa-1(18),6,8,10 (21),16,19-hexaene-7-carboxamide; trifluoroacetic acid] | 300 | – | – | –
COC[C@H](C)S(=O)(=O)c1ccc2cc1CN(C)C(=O)[C@H](Nc1ccc3c(N)ncc(F)c3c1)c1ccc(c(C)c1)[C@@H](C)COC(=O)N2.O=C(O)C(F)(F)F [Example 6, (2R,15R)-2-[(1-Amino-4-fluoroisoquinolin-6-yl)amino]-7-[(2S)-1-methoxypropane-2-sulfonyl]-4,15,17-trimethyl-13-oxa-4,11-diazatricyclo[14.2.2.1^6,10]henicosa-1(18),6,8,10 (21),16,19-hexaene-3,12-dione; trifluoroacetic acid] | 550 | 1.8 | 306 | –
Cc1cc2ccc1[C@@H](C)COC(=O)Nc1cc(F)c(OC[C@H](C)O)c(c1)CN(C)C(=O)[C@@H]2Nc1ccc2c(N)nccc2c1.O=C(O)C(F)(F)F [Example 17, (2R,15R)-2-[(1-Aminoisoquinolin-6-yl)amino]-8-fluoro-7-[(2S)-2-hydroxypropoxy]-4,15,20-trimethyl-13-oxa-4,11-diazatricyclo[14.2.2.1^6,10]henicosa-1(18),6,8,10 (21),16,19-hexaene-3,12-dione; trifluoroacetic acid] | 400 | 0.46 | 870 | –
Cc1cc2ccc1[C@@H](C)COC(=O)Nc1cc(F)c(S(=O)(=O)C3CC3)c(c1)CN(C)C(=O)[C@@H]2Nc1cc2ccnc(N)c2cc1F.O=C(O)C(F)(F)F [Example 29, (2R,15R)-2-[(1-Amino-7-fluoroisoquinolin-6-yl)amino]-7-(cyclopropanesulfonyl)-8-fluoro-4,15,17-trimethyl-13-oxa-4,11-diazatricyclo[14.2.2.1^6,10]henicosa-1(18),6,8,10 (21),16,19-hexaene-3,12-dione; trifluoroacetic acid] | 750 | 0.17 | 4412 | –
Cc1cc2ccc1[C@@H](C)COC(=O)Nc1ccc(S(=O)(=O)C(C)(C)C)c(c1)CN(C)C(=O)[C@@H]2Nc1ccc2c(N)nccc2c1.O=C(O)C(F)(F)F (stereo in doubt) [Example 22, (15R)-2-[(1-Aminoisoquinolin-6-yl)amino]-4,15,17-trimethyl-7-(2-methylpropane-2-sulfonyl)-13-oxa-4,11-diazatricyclo[14.2.2.1^6,10]henicosa-1(18),6,8,10 (21),16,19-hexaene-3,12-dione; trifluoroacetic acid] | 780 | 0.31 | 2516 | –
CCS(=O)(=O)c1ccc2cc1CNC(=O)[C@H](Nc1ccc3c(N)nccc3c1)c1ccc(cc1)CCOC(=O)N2 [Comparator 2, reference compound] | 110 | 11 | 10 | –
Cc1cc2ccc1[C@@H](C)COC(=O)Nc1cc(F)c(OC[C@H](O)C3CC3)c(c1)CN(C)C(=O)[C@@H]2Nc1ccc2c(N)nccc2c1.O=C(O)C(F)(F)F (stereo in doubt) [Example 21, (2R,15R)-2-[(1-Aminoisoquinolin-6-yl)amino]-7-[(2S)-2-cyclopropyl-2-hydroxyethoxy]-8-fluoro-4,15,20-trimethyl-13-oxa-4,11-diazatricyclo[14.2.2.16,10]henicosa-1(18),6,8,10 (21),16,19-hexaene-3,12-dione; trifluoroacetic acid] | 550 | 0.34 | 1618 | –
Cc1cc2ccc1[C@@H](C)COC(=O)Nc1ccc(C3(c4nnn[nH]4)CC3)c(c1)CN(C)C(=O)[C@@H]2Nc1ccc2c(N)nccc2c1.O=C(O)C(F)(F)F [Example 36, (2R,15R)-2-[(1-Aminoisoquinolin-6-yl)amino]-4,15,20-trimethyl-7-[1-(1H-1,2,3,4-tetrazol-5-yl)cyclopropyl]-13-oxa-4,11-diazatricyclo[14.2.2.1^6,10]henicosa-1(18),6,8,10 (21),16,19-hexaene-3,12-dione; trifluoroacetic acid] | 230 | 0.12 | 1917 | –
COC[C@H](C)Oc1c(F)cc2cc1CN(C)C(=O)[C@H](Nc1ccc3c(N)nccc3c1)c1ccc(c(C)c1)[C@@H](C)COC(=O)N2.O=C(O)C(F)(F)F [Example 37, (2R,15R)-2-[(1-Aminoisoquinolin-6-yl)amino]-8-fluoro-7-{[(2S)-1-methoxypropan-2-yl]oxy}-4,15,20-trimethyl-13-oxa-4,11-diazatricyclo[14.2.2.1^6,10]henicosa-1(18),6,8,10 (21),16,19-hexaene-3,12-dione; trifluoroacetic acid] | 190 | 0.14 | 1357 | –
Cc1cc2ccc1[C@@H](C)COC(=O)Nc1cc(F)c(S(=O)(=O)C3CC3)c(c1)CN(C)C(=O)[C@@H]2Nc1cc(F)c2c(N)nccc2c1.O=C(O)C(F)(F)F [Example 11, (2R,15R)-2-[(1-Amino-8-fluoroisoquinolin-6-yl)amino]-7-(cyclopropanesulfonyl)-8-fluoro-4,15,17-trimethyl-13-oxa-4,11-diazatricyclo[14.2.2.1^6,10]henicosa-1(18),6,8,10 (21),16,19-hexaene-3,12-dione; trifluoroacetic acid] | 96 | 0.66 | 145 | –
CCS(=O)(=O)c1ccc2cc1CNC(=O)[C@H](Nc1ccc3c(N)nccc3c1)c1cc(C)c(c(C)c1)CCOC(=O)N2 [Comparator 3, reference compound] | 70 | 1.1 | 64 | –
Cc1cc2ccc1[C@@H](C)COC(=O)Nc1cc(F)c(O[C@@H]3CCOC3)c(c1)CN(C)C(=O)[C@@H]2Nc1ccc2c(N)nccc2c1.O=C(O)C(F)(F)F [Example 38, (2R,15R)-2-[(1-Aminoisoquinolin-6-yl)amino]-8-fluoro-4,15,20-trimethyl-7-[(3R)-oxolan-3-yloxy]-13-oxa-4,11-diazatricyclo[14.2.2.1^6,10]henicosa-1(18),6,8,10 (21),16,19-hexaene-3,12-dione; trifluoroacetic acid] | 290 | 0.05 | 5800 | –
Cc1cc2ccc1[C@@H](CF)COC(=O)Nc1ccc(S(=O)(=O)C3CC3)c(c1)CN(C)C(=O)[C@@H]2Nc1ccc2c(N)nccc2c1.O=C(O)C(F)(F)F [Example 24, (2R,15R)-2-[(1-Aminoisoquinolin-6-yl)amino]-7-(cyclopropanesulfonyl)-15-(fluoromethyl)-4,17-dimethyl-13-oxa-4,11-diazatricyclo[14.2.2.1^6,10]henicosa-1(18),6,8,10 (21),16,19-hexaene-3,12-dione; trifluoroacetic acid] | 200 | – | – | –
Cc1cc2ccc1[C@@H](C)COC(=O)Nc1cc(F)c(OCC3(C#N)CC3)c(c1)CN(C)C(=O)[C@@H]2Nc1ccc2c(N)nccc2c1.O=C(O)C(F)(F)F [Example 18, 1-({[(2R,15R)-2-[(1-Aminoisoquinolin-6-yl)amino]-8-fluoro-4,15,20-trimethyl-3,12-dioxo-13-oxa-4,11-diazatricyclo[14.2.2.1^6,10]henicosa-1(18),6,8,10 (21),16,19-hexaen-7-yl]oxy}methyl)cyclopropane-1-carbonitrile; trifluoroacetic acid] | 490 | – | 1114 | 0.44
Cc1cc2cc(C)c1C(F)(F)COC(=O)Nc1ccc(S(=O)(=O)C3CC3)c(c1)CN(C)C(=O)[C@@H]2Nc1ccc2c(N)nccc2c1.O=C(O)C(F)(F)F [Example 5, (2R)-2-[(1-Aminoisoquinolin-6-yl)amino]-7-(cyclopropanesulfonyl)-15,15-difluoro-4,17,20-trimethyl-13-oxa-4,11-diazatricyclo[14.2.2.1^6,10]henicosa-1(18),6,8,10 (21),16,19-hexaene-3,12-dione; trifluoroacetic acid] | 290 | 2 | 145 | –
CC[C@@H](C(=O)O)c1ccc2cc1CN(C)C(=O)[C@H](Nc1ccc3c(N)ncc(F)c3c1)c1ccc(c(C)c1)[C@@H](C)COC(=O)N2.O=C(O)C(F)(F)F [Example 13, (2R)-2-[(2R,15R)-2-[(1-Amino-4-fluoroisoquinolin-6-yl)amino]-4,15,17-trimethyl-3,12-dioxo-13-oxa-4,11-diazatricyclo[14.2.2.1^6,10]henicosa-1(18),6,8,10 (21),16,19-hexaen-7-yl]butanoic acid; trifluoroacetic acid] | 380 | 0.61 | 623 | –
Cc1cc2ccc1[C@@H](C)COC(=O)Nc1cc(F)c(S(=O)(=O)C(C)C)c(c1)CN(C)C(=O)[C@@H]2Nc1cc2ccnc(N)c2cc1F.O=C(O)C(F)(F)F [Example 34, (2R,15R)-2-[(1-Amino-7-fluoroisoquinolin-6-yl)amino]-8-fluoro-4,15,17-trimethyl-7-(propane-2-sulfonyl)-13-oxa-4,11-diazatricyclo[14.2.2.1^6,10]henicosa-1(18),6,8,10 (21),16,19-hexaene-3,12-dione; trifluoroacetic acid] | 2100 | 0.14 | 15000 | –
Cc1cc2ccc1[C@@H](C)COC(=O)Nc1cc(F)c(OC(CF)CF)c(c1)CN(C)C(=O)[C@@H]2Nc1ccc2c(N)nccc2c1.O=C(O)C(F)(F)F [Example 32, (2R,15R)-2-[(1-Aminoisoquinolin-6-yl)amino]-7-[(1,3-difluoropropan-2-yl)oxy]-8-fluoro-4,15,20-trimethyl-13-oxa-4,11-diazatricyclo[14.2.2.1^6,10]henicosa-1(18),6,8,10 (21),16,19-hexaene-3,12-dione; trifluoroacetic acid] | 41 | 0.15 | 273 | –
C[C@H]1COC(=O)Nc2cccc(c2)CNC(=O)C(Nc2ccc3c(N)nccc3c2)c2ccc1cc2 (stereo partly drawn) [Comparator 4, reference compound] | – | > 140 | – | –
